IC50 data for 24 compounds are collected here from patent US20130331378A1, “PYRAZOLOPYRIDINE DERIVATIVE OR PHARMACOLOGICALLY ACCEPTABLE SALT THEREOF” (KISSEI PHARMACEUTICAL CO., LTD., priority 2011, published 2013).

The assay deals with T1, rat EP1 receptor (Rattus norvegicus, UniProt P70597).
T1 construct: expressed in transfected cells
T1 sequence (P70597 1-405): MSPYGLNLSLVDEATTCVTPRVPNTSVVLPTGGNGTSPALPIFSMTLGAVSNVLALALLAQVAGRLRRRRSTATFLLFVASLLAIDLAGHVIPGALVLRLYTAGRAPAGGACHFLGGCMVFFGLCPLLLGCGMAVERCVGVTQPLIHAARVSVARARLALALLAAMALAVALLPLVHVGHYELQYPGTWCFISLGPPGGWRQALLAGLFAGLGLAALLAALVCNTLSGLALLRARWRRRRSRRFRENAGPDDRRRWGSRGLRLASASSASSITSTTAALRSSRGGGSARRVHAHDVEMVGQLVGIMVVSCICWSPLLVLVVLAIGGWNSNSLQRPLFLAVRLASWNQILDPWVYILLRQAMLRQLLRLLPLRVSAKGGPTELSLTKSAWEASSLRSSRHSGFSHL
The assay is described as follows: Test for confirming EP1 receptor antagonistic effect: suppression of prostaglandin E2-induced rise in intracellular calcium concentration. Type of assay: cell-based. Particulars: rat EP1 receptor-expressing COS-1 cells; prostaglandin E2 10 nM; Fluo 4-AM fluorescent signal; test compound 0.1 nM to 10 μM. On the procedure:
(1) Preparation of Rat EP1 Expression Vector
The first PCR was performed with Rat Kidney BD Marathon-Ready cDNA (Nippon Becton Dickinson Co., Ltd.) as a template using a forward primer represented by SEQ ID NO: 1 and a reverse primer represented by SEQ ID NO: 2 and using KOD-Plus-Ver 2.0 (Toyobo Co., Ltd.). The second PCR was further performed in a similar manner with this amplification product as a template using a forward primer represented by SEQ ID NO: 3 and a reverse primer represented by SEQ ID NO: 4. The amplification product obtained by the second PCR was incorporated into a vector (pcDNA3.1 D/V5-His-TOPO (registered trademark), Invitrogen Corporation). This vector with the incorporated amplification product was introduced to E. coli (One Shot TOP10 Competent Cell, Invitrogen Corporation) by a conventional method to perform transformation. This transformed E. coli was cultured for 1 day in an LB agar medium. After the culture, colonies were selected and cultured in an LB liquid medium containing 50 μg/mL of ampicillin. After the culture, the vector was purified using QIAprep Spin Miniprep Kit (Qiagen Corporation). The base sequence (SEQ ID NO: 5) of the inserted site in this vector was compared with the base sequence (Ptger1) of rat EP1 registered under Accession No. NM_013100 in a heretofore known database (NCBI) and consequently was completely identical except for 1 base. Moreover, an amino acid sequence translated from this base sequence was completely identical to the amino acid sequence of the rat EP1 receptor registered under Accession No. NP_037232 in NCBI. Thus, it was confirmed that the cloned gene sequence was the base sequence of the rat EP1 receptor and the obtained amino acid sequence was the rat EP1 receptor. The pcDNA3.1 D/V5-His-TOPO (registered trademark) in which the nucleic acid represented by SEQ ID NO: 5 was inserted was used as a rat EP1 expression vector.
(2) Preparation of Rat EP1 Receptor-Expressing Cell
COS-1 cells (Dainippon Sumitomo Pharma Co., Ltd.) were cultured at 37° C. in an incubator under 5% CO2 gas conditions using a D-MEM liquid medium (containing high glucose and L-glutamine, Invitrogen Corporation) supplemented with a penicillin-streptomycin solution (Invitrogen Corporation, final concentration: 100 U/mL as benzylpenicillin; 100 μg/mL as streptomycin) as antibiotics, MEM non-essential amino acids (Invitrogen Corporation, final concentration: 0.1 mM), and fetal bovine serum (Moregate Biotech, final concentration: 10%), until reaching confluence.
The cells that reached confluence were dissociated with 0.05% trypsin/0.53 mM EDTA.4Na (Invitrogen Corporation) and resuspended in the liquid medium. The resuspended cells were diluted with the liquid medium so that the spread ratio became 1:4 to 1:8, and were cultured.
The cells that reached confluence were dissociated with 0.05% trypsin/0.53 mM EDTA.4Na and resuspended in a D-MEM liquid medium (containing high glucose and L-glutamine, Invitrogen Corporation) supplemented with MEM non-essential amino acids (final concentration: 0.1 mM) and fetal bovine serum (final concentration: 10%). This resuspended cell suspension was prepared with a liquid medium so as to become the number of cells 5×10^4 cells/100 μL of the liquid medium/well in each well of a poly-D-lysine-coated 96-well microplate (BD BioCoat (registered trademark), Nippon Becton Dickinson Co., Ltd.), and this cell preparation was dispensed at 100 μL to each well and seeded. After the seeding, the cells were cultured at 37° C. in an incubator under 5% CO2 gas conditions. The introduction of the rat EP1 expression vector was performed by procedures shown below at the point in time when the cells for introduction of this rat EP1 expression vector adhered (approximately 2 hours after the seeding).
Lipofectamine 2000 (Invitrogen Corporation) was used for the introduction of the rat EP1 expression vector. […]
(In general: Calcium flux is commonly read through the fluorescence of an indicator in the cells.)
On to `COc1ccc2c(Cc3cccc(-c4nnn[nH]4)n3)c(-c3ccccc3)nn2c1` [Example 2-1, 6-Methoxy-2-phenyl-3-[[6-(1H-tetrazol-5-yl)pyridin-2-yl]methyl]pyrazolo[1,5-a]pyridine], for which the IC50 (commonly the concentration that gives 50% inhibition) turned out to be 56 nM.

Turning to `O=C(O)c1cccc(Cc2c(-c3ccccc3)nn3cc(Cl)ccc23)c1` [Example 3-2, 3-[(6-Chloro-2-phenylpyrazolo[1,5-a]pyridin-3-yl)methyl]benzoic acid], the concentration for half-maximal inhibition (IC50) was found to be 29 nM. To `COc1ccc2c(Cc3cccc(C(=O)O)c3)c(-c3ccccc3)nn2c1` [Example 3-4, 3-[(6-Methoxy-2-phenylpyrazolo[1,5-a]pyridin-3-yl)methyl]benzoic acid] belongs 11 nM; to `COc1ccc2c(Cc3cccc(C(=O)O)n3)c(-c3ccccc3)nn2c1` [Example 3-5, 6-[(6-Methoxy-2-phenylpyrazolo[1,5-a]pyridin-3-yl)methyl]pyridine-2-carboxylic acid], 6 nM. To `COc1ccc2c(Cc3ccc(C(=O)O)o3)c(-c3ccccc3)nn2c1` [Example 3-6, 5-[(6-Methoxy-2-phenylpyrazolo[1,5-a]pyridin-3-yl)methyl]furan-2-carboxylic acid] belongs 60 nM; to `C=Cc1ccc2c(Cc3cccc(C(=O)O)n3)c(-c3ccccc3)nn2c1` [Example 3-11, 6-[(2-Phenyl-6-vinylpyrazolo[1,5-a]pyridin-3-yl)methyl]pyridine-2-carboxylic acid], 21 nM; to `O=C(O)c1cccc(Cc2c(-c3ccccc3)nn3cc(Br)ccc23)n1` [Example 3-14, 6-[(6-Bromo-2-phenylpyrazolo[1,5-a]pyridin-3-yl)methyl]pyridine-2-carboxylic acid], 11 nM.

As for `COc1ccc2c(Cc3cccc(C(=O)O)n3)c(C(C)(C)C)nn2c1` [Example 3-15, 6-[(2-tert-Butyl-6-methoxypyrazolo[1,5-a]pyridin-3-yl)methyl]pyridine-2-carboxylic acid], the IC50 was determined as 39 nM. Next, `COc1ccc2c(Cc3cccc(C(=O)O)n3)c(C3CCCC3)nn2c1` [Example 3-18, 6-[(2-Cyclopentyl-6-methoxypyrazolo[1,5-a]pyridin-3-yl)methyl]pyridine-2-carboxylic acid]: 170 nM; `Cc1ccc2c(Cc3cccc(C(=O)O)n3)c(-c3ccccc3)nn2c1` [Example 3-21, 6-[(6-Methyl-2-phenylpyrazolo[1,5-a]pyridin-3-yl)methyl]pyridine-2-carboxylic acid]: 19 nM. As to `O=C(O)c1cccc(Cc2c(-c3ccccc3)nn3cc(C(F)(F)F)ccc23)n1` [Example 3-22, 6-[[2-Phenyl-6-(trifluoromethyl)pyrazolo[1,5-a]pyridin-3-yl]methyl]pyridine-2-carboxylic acid], the IC50 came out at 19 nM. Next, `COc1ccc2c(Cc3cccc(C(=O)O)n3)c(-c3ccc(F)cc3)nn2c1` [Example 3-24, 6-[[2-(4-Fluorophenyl)-6-methoxypyrazolo[1,5-a]pyridin-3-yl]methyl]pyridine-2-carboxylic acid]: 16 nM. Take `COc1ccc2c(Cc3cccc(C(=O)O)n3)c(-c3ccsc3)nn2c1` [Example 3-32, 6-[[6-Methoxy-2-(thiophen-3-yl)pyrazolo[1,5-a]pyridin-3-yl]methyl]pyridine-2-carboxylic acid]: the 50% inhibitory concentration (IC50) was 43 nM.

In the case of `O=C(O)c1csc(Cc2c(-c3ccccc3)nn3cc(Cl)ccc23)n1` [Example 12-7], the IC50 is 110 nM. As for `CSc1ccc2c(Cc3cccc(C(=O)O)n3)c(-c3ccccc3)nn2c1` [Example 12-17, 6-[[6-(Methylthio)-2-phenylpyrazolo[1,5-a]pyridin-3-yl]methyl]pyridine-2-carboxylic acid], the IC50 is 87 nM.

On to `CC(C)(C)c1nn2cc(Cl)ccc2c1Cc1cccc(C(=O)O)n1` [Example 12-23, 6-[(2-tert-Butyl-6-chloropyrazolo[1,5-a]pyridin-3-yl)methyl]pyridine-2-carboxylic acid], for which the IC50 was determined as 48 nM.

Consider `O=C(O)c1cccc(Cc2c(N3CCCCC3)nn3cc(Cl)ccc23)n1` [Example 12-26, 6-[[6-Chloro-2-(piperidin-1-yl)pyrazolo[1,5-a]pyridin-3-yl]methyl]pyridine-2-carboxylic acid], for which the concentration for half-maximal inhibition (IC50) came to 79 nM.

Regarding `CC1(c2nn3cc(Cl)ccc3c2Cc2cccc(C(=O)O)n2)CC1` [Example 12-36, 6-[[6-Chloro-2-(1-methylcyclopropyl)pyrazolo[1,5-a]pyridin-3-yl]methyl]pyridine-2-carboxylic acid], the IC50 amounted to 160 nM.

`O=C(O)c1cccc(Cc2c(-c3cccc(F)c3)nn3cc(Cl)ccc23)n1` [Example 12-38, 6-[[6-Chloro-2-(3-fluorophenyl)pyrazolo[1,5-a]pyridin-3-yl]methyl]pyridine-2-carboxylic acid]: the IC50 worked out at 39 nM. In the case of `COc1ccc2c(Cc3cccc(C(=O)O)n3)c(-c3cccc(F)c3)nn2c1` [Example 12-53, 6-[[2-(3-Fluorophenyl)-6-methoxypyrazolo[1,5-a]pyridin-3-yl]methyl]pyridine-2-carboxylic acid], the IC50 was found to be 2.9 nM. To `CS(=O)(=O)NC(=O)c1cccc(Cc2c(-c3ccccc3)nn3cc(Cl)ccc23)n1` [Example 23-1, 6-[(6-Chloro-2-phenylpyrazolo[1,5-a]pyridin-3-yl)methyl]-N-(methylsulfonyl)pyridine-2-carboxamide] belongs 62 nM; to `O=c1[nH]c(-c2cccc(Cc3c(-c4ccccc4)nn4cc(Cl)ccc34)n2)no1` [Example 25-1], 46 nM. Next, `S=c1[nH]c(-c2cccc(Cc3c(-c4ccccc4)nn4cc(Cl)ccc34)n2)no1` [Example 26-1]: 70 nM. Next, `Clc1ccc2c(Cc3cccc(-c4nnn[nH]4)n3)c(-c3ccccc3)nn2c1` [Example 28-1, 6-Chloro-2-phenyl-3-[[6-(1H-tetrazol-5-yl)pyridin-2-yl]methyl]pyrazolo[1,5-a]pyridine]: 2.5 nM.
